Results reported in patent US20120270237A9, “METHODS FOR THE IDENTIFICATION OF KINASE INTERACTING MOLECULES AND FOR THE PURIFICATION OF KINASE PROTEINS” (Cellzone AG, priority 2009, published 2012).

Legend:
Test in all cases: Kinobeads competition binding, HL60 cell lysate
Set-up in all cases: Identified kinases with CZC31326 from HL60 lysate; endogenous in cells; host or cells: HL60
Details in all cases: 10 μM free compound
MAP2K1 = MAP2K1 (Homo sapiens, UniProt Q02750)
Description: (§1) To one aliquot of cell lysate 10 μM of the free compound (FIG. 3, CZC31326) was added and allowed to bind to proteins in the lysate. Then the affinity matrix with the immobilized compound (Example 1) was added to capture proteins that were not interacting with the previously added free compound. Beads were separated from the lysate and bead bound proteins were eluted in SDS sample buffer and subsequently separated by SDS-Polyacrylamide gel electrophoresis (FIG. 4). Suitable gel bands were cut out and subjected to in-gel proteolytic digestion with trypsin. The second lysate aliquot was processed identically, however no free compound was added (DMSO solvent control). Peptides originating from samples 1 and 2 were labeled with iTRAQ reagents (iTRAQ 114 and iTRAQ 117) and the combined samples were analyzed with a nano-flow liquid chromatography system coupled online to a tandem mass spectrometer (LC-MS/MS) experiment followed by iTRAQ reporter ion quantification in the MS/MS spectra (Ross et al., 2004. Mol. Cell. Proteomics 3(12):1154-1169). Further experimental protocols can be found in WO2006/134056 and a previous publication (Bantscheff et al., 2007. Nature Biotechnology 25, 1035-1044). Sepharose-beads with the immobilized compound (100 μl beads per pull-down experiment) were equilibrated in lysis buffer and incubated with a cell lysate sample containing 50 mg of protein on an end-over-end shaker (Roto Shake Genie, Scientific Industries Inc.) for 2 hours at 4° C. Beads were collected, transferred to Mobicol-columns (MoBiTech 10055) and washed with 10 ml lysis buffer containing 0.4% NP40 detergent, followed by 5 ml lysis buffer containing 0.2% detergent. To elute bound proteins, 60 μl 2×SDS sample buffer was added to the column. The column was incubated for 30 minutes at 50° C. and the eluate was transferred to a siliconized microfuge tube by centrifugation. Proteins were then alkylated with 108 mM iodoacetamid. Proteins were then separated by SDS-Polyacrylamide electrophoresis (SDS-PAGE). The peptide extracts of samples treated with 10 μM of free compound (CZC31326) and the solvent control (0.5% DMSO) were treated with different variants of the isobaric tagging reagent (iTRAQ Reagents Multiplex Kit, part number 4352135, Applied Biosystems, Foster City, Calif., USA). The iTRAQ reagents are a set of multiplexed, amine-specific, stable isotope reagents that can label peptides on amino groups in up to four different biological samples enabling simultaneous identification and quantitation of peptides. […] Relative protein quantitation was performed using peak areas of iTRAQ reporter ion signals essentially as described in an earlier publication (Bantscheff et al., 2007. Nature Biotechnology 25, 1035-1044).

LRRK2 = LRRK2 (Homo sapiens, UniProt Q5S007)
Description: as §1

MAP2K3 = MAP2K3 (Homo sapiens, UniProt P46734)
Description: as §1

LOK = LOK (Homo sapiens, UniProt O94804)
Description: as §1

Sequence of LRRK2 (Q5S007 whole entry): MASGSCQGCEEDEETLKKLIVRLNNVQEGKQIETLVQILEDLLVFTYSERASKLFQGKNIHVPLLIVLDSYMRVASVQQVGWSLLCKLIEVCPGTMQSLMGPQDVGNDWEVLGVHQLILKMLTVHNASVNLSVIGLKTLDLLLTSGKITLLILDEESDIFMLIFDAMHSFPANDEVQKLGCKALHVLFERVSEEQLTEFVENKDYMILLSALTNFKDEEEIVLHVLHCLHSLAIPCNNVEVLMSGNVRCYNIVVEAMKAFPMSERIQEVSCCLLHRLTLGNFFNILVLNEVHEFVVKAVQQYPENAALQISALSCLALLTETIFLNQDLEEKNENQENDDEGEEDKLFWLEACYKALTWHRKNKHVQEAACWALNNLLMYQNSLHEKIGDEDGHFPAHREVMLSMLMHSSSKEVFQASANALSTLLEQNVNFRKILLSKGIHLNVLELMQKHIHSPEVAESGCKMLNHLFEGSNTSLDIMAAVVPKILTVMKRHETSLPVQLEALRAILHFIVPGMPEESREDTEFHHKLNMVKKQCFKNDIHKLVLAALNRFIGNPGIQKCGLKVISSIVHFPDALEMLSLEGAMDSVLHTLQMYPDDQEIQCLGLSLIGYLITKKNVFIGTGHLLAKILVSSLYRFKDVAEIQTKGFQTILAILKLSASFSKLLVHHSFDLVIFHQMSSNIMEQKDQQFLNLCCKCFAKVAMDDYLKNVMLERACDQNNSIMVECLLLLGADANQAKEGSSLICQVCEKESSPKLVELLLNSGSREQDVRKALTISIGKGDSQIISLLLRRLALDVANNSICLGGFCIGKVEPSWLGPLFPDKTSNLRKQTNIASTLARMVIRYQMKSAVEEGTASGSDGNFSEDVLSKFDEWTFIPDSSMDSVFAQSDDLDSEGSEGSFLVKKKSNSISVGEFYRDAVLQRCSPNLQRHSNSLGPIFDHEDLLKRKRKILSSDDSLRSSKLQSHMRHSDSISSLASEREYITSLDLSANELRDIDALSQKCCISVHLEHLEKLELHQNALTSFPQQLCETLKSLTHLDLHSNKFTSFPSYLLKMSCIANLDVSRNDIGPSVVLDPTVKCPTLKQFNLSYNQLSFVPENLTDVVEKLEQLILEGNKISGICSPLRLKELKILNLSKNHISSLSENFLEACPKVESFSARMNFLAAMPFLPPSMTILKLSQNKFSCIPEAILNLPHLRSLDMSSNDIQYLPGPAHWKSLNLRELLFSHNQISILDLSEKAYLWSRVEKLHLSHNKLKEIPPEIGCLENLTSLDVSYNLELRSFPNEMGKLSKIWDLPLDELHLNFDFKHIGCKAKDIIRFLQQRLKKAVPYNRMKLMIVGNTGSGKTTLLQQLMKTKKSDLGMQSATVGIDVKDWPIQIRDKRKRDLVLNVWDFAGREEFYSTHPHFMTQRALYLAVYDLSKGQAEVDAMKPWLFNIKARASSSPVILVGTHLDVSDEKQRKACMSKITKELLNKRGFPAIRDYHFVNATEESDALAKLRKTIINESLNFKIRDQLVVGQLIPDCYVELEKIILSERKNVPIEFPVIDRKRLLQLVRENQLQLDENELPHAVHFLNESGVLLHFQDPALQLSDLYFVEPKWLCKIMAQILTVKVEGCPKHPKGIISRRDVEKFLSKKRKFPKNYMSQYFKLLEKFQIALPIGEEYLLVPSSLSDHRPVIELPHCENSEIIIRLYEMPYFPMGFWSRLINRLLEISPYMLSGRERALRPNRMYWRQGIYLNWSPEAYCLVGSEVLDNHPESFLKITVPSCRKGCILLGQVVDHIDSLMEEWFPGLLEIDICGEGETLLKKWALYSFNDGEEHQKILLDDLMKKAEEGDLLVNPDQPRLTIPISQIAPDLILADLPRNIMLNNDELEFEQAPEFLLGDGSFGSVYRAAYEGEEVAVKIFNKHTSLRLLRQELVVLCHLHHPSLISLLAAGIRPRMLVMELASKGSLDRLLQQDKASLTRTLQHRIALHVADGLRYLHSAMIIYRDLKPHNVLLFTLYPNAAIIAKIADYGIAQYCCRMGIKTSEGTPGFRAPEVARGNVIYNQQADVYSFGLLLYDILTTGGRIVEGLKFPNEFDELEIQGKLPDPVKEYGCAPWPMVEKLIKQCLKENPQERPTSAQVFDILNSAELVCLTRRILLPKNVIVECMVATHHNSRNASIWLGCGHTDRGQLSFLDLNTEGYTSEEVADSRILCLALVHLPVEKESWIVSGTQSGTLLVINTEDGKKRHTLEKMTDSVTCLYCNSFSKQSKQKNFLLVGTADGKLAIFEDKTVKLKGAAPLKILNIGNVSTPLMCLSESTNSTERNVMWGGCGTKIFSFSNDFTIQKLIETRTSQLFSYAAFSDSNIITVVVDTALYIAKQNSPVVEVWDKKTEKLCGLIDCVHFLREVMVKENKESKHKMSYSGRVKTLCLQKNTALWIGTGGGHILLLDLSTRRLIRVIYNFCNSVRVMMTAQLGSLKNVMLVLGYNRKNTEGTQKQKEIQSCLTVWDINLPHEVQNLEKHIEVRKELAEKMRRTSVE
Sequence of LOK (O94804 whole entry): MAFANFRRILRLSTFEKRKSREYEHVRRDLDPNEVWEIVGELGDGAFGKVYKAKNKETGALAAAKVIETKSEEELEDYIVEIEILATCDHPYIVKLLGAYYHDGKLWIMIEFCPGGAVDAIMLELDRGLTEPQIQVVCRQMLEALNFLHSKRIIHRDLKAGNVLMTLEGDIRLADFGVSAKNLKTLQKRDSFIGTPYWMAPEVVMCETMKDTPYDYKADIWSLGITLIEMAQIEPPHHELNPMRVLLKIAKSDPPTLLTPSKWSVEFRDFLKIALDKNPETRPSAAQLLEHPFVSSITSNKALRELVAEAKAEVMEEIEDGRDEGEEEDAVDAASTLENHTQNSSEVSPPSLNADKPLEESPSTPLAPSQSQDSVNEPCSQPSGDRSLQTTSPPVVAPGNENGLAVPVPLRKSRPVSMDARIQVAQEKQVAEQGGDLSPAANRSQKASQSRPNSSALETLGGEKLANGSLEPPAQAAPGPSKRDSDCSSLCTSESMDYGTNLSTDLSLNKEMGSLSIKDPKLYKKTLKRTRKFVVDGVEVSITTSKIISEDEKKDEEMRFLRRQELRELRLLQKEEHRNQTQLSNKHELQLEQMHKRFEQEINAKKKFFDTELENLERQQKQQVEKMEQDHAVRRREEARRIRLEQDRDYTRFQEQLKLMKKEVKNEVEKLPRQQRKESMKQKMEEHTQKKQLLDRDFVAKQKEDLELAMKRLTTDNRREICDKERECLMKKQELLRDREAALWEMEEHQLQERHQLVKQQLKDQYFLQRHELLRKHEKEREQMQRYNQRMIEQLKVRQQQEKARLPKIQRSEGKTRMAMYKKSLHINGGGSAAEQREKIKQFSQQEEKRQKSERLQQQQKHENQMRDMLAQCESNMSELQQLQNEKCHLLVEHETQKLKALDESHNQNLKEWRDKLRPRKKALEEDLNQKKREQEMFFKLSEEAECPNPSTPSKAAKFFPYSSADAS
Sequence of MAP2K3 (P46734 whole entry): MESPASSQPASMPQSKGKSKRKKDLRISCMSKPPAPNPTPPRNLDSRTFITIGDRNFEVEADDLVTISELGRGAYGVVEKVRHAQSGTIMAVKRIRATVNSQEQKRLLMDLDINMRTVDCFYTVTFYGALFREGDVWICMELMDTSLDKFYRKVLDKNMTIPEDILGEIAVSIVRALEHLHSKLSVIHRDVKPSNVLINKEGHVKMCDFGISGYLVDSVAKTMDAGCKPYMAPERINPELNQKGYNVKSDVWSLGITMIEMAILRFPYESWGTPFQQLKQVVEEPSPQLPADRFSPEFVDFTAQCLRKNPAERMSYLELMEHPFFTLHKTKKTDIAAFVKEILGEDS
Sequence of MAP2K1 (Q02750 whole entry): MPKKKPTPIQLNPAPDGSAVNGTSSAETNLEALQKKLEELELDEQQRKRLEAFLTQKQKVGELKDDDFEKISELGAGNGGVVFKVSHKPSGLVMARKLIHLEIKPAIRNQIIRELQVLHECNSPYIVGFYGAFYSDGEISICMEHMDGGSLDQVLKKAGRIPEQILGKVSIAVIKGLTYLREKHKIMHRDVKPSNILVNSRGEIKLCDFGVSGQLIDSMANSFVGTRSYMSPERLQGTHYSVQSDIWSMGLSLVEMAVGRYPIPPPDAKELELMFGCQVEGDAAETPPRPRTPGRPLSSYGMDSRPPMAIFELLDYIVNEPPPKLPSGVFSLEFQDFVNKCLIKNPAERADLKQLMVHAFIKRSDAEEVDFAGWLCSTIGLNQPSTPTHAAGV

- inhibition at 10 µM (MAP2K1): 85.2%
- inhibition at 10 µM (LRRK2): 71.7%
- inhibition at 10 µM (MAP2K3): 90.9%
- Competition % (LOK): 95.3%
SMILES: CS(=O)(=O)Nc1ccccc1Nc1nc(Nc2cccc(OCCN)c2)ncc1Cl [CZC31326, N-(2-(2-(3-(2-aminoethoxy)phenylamino)-5-chloropyrimidin-4-ylamino)phenyl)methanesulfonamide]
